Assay results reported in patent publication US12539292B2, “BRM targeting compounds and associated methods of use” (Arvinas Operations, Inc., priority 2018, dated 2026).
Like-named read-outs stand apart in the source and are kept apart here. One block for each compound: values may come before it.

Target: T1, BRM (Homo sapiens, UniProt P51531)
T1 construct: In-Cell Western Screen of BRM Degradation in SW1573 Cells; endogenous in cells; host or cells: SW1573
Test: In-cell Western screen of BRM degradation in SW1573 cells (Dmax and DC50)
Assay type: cell-based
Summary of the method: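 Adherent SW1573 cultures exposed to test compounds for 18-20 h were processed for in-cell Western after PFA fixation and detergent permeabilization. BRM degradation was reported as Dmax and DC50.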

[1] = BRM degradation, SW1573 cells, read-out: DC50
[2] = BRM degradation, read-out: BRM DC50
[3] = BRM degradation, SW1573 cells, tested at the top concentration of between 0.3 and 10 μM, read-out: Dmax (%) (% degraded)
[4] = BRM degradation, SW1573 cells, when tested at the top concentration of between 0.3 and 10 μM, read-out: Dmax (%) (% degraded)
[5] = BRM degradation, SW1573 cells, Table 2D, read-out: *DC50

T1 sequence (P51531 whole entry): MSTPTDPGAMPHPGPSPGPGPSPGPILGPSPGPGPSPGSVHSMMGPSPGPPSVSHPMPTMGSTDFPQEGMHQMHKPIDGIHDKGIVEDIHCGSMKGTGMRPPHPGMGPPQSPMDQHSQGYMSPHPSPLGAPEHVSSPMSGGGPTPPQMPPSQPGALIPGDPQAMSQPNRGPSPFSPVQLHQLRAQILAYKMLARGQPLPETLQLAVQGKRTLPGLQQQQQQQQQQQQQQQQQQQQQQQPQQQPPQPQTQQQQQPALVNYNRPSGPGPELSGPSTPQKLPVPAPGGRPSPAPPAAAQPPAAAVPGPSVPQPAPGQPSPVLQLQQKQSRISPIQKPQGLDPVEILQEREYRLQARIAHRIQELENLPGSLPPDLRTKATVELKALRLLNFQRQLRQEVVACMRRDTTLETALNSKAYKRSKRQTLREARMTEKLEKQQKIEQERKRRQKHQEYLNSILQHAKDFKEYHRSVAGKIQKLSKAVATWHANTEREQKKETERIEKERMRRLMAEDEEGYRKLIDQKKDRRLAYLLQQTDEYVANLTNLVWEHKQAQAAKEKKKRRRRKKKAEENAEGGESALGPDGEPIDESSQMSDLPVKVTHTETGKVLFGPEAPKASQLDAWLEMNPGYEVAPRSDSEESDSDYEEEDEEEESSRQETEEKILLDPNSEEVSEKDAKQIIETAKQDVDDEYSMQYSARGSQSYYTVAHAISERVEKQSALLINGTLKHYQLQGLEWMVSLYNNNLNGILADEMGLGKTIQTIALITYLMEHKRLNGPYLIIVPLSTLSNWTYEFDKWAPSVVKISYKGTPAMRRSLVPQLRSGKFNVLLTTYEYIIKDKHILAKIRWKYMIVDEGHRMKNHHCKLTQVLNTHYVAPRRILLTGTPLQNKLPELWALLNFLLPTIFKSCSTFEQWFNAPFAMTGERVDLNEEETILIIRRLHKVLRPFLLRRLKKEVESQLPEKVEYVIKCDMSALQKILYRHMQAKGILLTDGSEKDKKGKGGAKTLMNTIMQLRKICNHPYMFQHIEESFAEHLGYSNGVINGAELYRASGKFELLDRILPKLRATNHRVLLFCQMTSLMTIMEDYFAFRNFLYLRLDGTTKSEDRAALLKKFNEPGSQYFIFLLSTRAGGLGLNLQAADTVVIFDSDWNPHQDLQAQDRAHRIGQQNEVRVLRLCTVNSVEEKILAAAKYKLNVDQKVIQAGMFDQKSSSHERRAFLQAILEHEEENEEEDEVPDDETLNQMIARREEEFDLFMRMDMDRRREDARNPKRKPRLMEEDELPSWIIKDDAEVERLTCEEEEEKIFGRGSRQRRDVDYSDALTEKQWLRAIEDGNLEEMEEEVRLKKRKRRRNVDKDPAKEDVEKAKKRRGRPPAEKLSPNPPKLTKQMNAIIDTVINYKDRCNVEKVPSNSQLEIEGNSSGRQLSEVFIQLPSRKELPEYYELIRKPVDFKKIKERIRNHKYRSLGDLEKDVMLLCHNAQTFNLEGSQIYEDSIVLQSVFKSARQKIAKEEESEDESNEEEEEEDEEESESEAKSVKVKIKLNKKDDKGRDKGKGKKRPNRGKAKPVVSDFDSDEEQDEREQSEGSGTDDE

- DC50 [2]: > 30 nM
SMILES: Cc1cc([C@@H](C(=O)N2C[C@H](O)C[C@H]2C(=O)N[C@@H](C)c2ccc(-c3scnc3C)cc2)[C@H](C)COCCn2cc(-c3cc(-c4ccccc4O)nnc3N)cn2)on1 [compound 534, (2S,4R)-1-((2S,3S)-4-(2-(4-(3-amino-6-(2-hydroxyphenyl)pyridazin-4-yl)-1 H-pyrazol-1-yl)ethoxy)-3-methyl-2-(3-methylisoxazol-5-yl)butanoyl)-4-hydroxy-N-((S)-1-(4-(4-methylthiazol-5-yl)phenyl)ethyl)pyrrolidine-2-carboxamide]

- DC50 [1]: > 30 nM
- Dmax [3]: > 75%
SMILES: Cc1ncsc1-c1ccc([C@H](C)NC(=O)[C@@H]2C[C@@H](O)CN2C(=O)[C@H](c2cc(OCCOc3ccc(C(C)n4cc(-c5cc(-c6ccccc6O)nnc5N)cn4)cc3)no2)C(C)C)cc1 (stereo partly drawn) [compound 156, (2S,4R)-1-((2S)-2-(3-(2-(4-(1-(4-(3-amino-6-(2-hydroxyphenyl)pyridazin-4-yl)-1H-pyrazol-1-yl)ethyl)phenoxy)ethoxy)isoxazol-5-yl)-3-methylbutanoyl)-4-hydroxy-N-((S)-1-(4-(4-methylthiazol-5-yl)phenyl)ethyl)pyrrolidine-2-carboxamide]

- DC50 [1]: < 2.5 nM
- Dmax [4]: > 75%
SMILES: Cc1ncsc1-c1ccc([C@H](C)NC(=O)[C@@H]2C[C@@H](O)CN2C(=O)[C@@H](c2cc(OCCN3CCN(Cc4ccc(C(C)n5cc(-c6cc(-c7ccccc7O)nnc6N)cn5)cc4)CC3)no2)C(C)C)cc1 (stereo partly drawn) [compound 83, (2S,4R)-1-((2R)-2-(3-(2-(4-(4-(1-(4-(3-amino-6-(2-hydroxyphenyl)pyridazin-4-yl)-1H-pyrazol-1-yl)ethyl)benzyl)piperazin-1-yl)ethoxy)isoxazol-5-yl)-3-methylbutanoyl)-4-hydroxy-N-((S)-1-(4-(4-methylthiazol-5-yl)phenyl)ethyl)pyrrolidine-2-carboxamide]

- DC50 [1]: 2.5 to 10 nM
- Dmax [4]: > 75%
SMILES: Cc1ncsc1-c1ccc(CNC(=O)[C@@H]2C[C@@H](O)CN2C(=O)[C@@H](NC(=O)COCCCc2ccc(C(C)n3cc(-c4cc(-c5ccccc5O)nnc4N)cn3)cc2)C(C)(C)C)cc1 (stereo partly drawn) [compound 33, (2S,4R)-1-[(2S)-2-(2-[3-[4-(1-[4-[3-amino-6-(2-hydroxyphenyl)pyridazin-4-yl]-1H-pyrazol-1-yl]ethyl)phenyl]propoxy]acetamido)-3,3-dimethylbutanoyl]-4-hydroxy-N-[[4-(4-methyl-1,3-thiazol-5-yl)phenyl]methyl]pyrrolidine-2-carboxamide]

Second part, the compound before the results:

SMILES: Cc1ncsc1-c1ccc([C@H](C)NC(=O)[C@@H]2C[C@@H](O)CN2C(=O)[C@H](c2cc(N3CCC4(CCN(CC5CCN(C[C@H]6C[C@H](Oc7cc(N8C9CCC8CN(c8cc(-c%10ccccc%10O)nnc8N)C9)ccn7)C6)CC5)CC4)CC3)no2)C(C)C)cc1 [compound 688, (2S,4R)-1-((2S)-2-(3-(9-((1-(((1r,3r)-3-((4-(3-(3-amino-6-(2-hydroxyphenyl)pyridazin-4-yl)-3,8-diazabicyclo[3.2.1]octan-8-yl)pyridin-2-yl)oxy)cyclobutyl)methyl)piperidin-4-yl)methyl)-3,9-diazaspiro[5.5]undecan-3-yl)isoxazol-5-yl)-3-methylbutanoyl)-4-hydroxy-N-((S)-1-(4-(4-methylthiazol-5-yl)phenyl)ethyl)pyrrolidine-2-carboxamide]
- DC50 [1]: > 30 nM

SMILES: Cc1cc([C@@H](C(=O)N2C[C@H](O)C[C@H]2C(=O)N[C@@H](COCCOCCNc2ccc(-c3ccccc3O)nn2)c2ccc(-c3scnc3C)cc2)C(C)C)on1 [compound 525, (2S,4R)-4-hydroxy-N-((R)-2-(2-(2-((6-(2-hydroxyphenyl)pyridazin-3-yl)amino)ethoxy)ethoxy)-1-(4-(4-methylthiazol-5-yl)phenyl)ethyl)-1-((S)-3-methyl-2-(3-methylisoxazol-5-yl)butanoyl)pyrrolidine-2-carboxamide]
- DC50 [2]: > 30 nM

SMILES: Cc1ncsc1-c1ccc([C@H](C)NC(=O)[C@@H]2C[C@@H](O)CN2C(=O)[C@H](c2cc(OCCN3CCC(O[C@H]4C[C@H](Oc5cc(N6C7CCC6CN(c6cc(-c8ccccc8O)nnc6N)C7)ccn5)C4)CC3)no2)C(C)C)cc1F [compound 252, (2S,4R)-1-((2S)-2-(3-(2-(4-((1r,3S)-3-((4-(3-(3-amino-6-(2-hydroxyphenyl)pyridazin-4-yl)-3,8-diazabicyclo[3.2.1]octan-8-yl)pyridin-2-yl)oxy)cyclobutoxy)piperidin-1-yl)ethoxy)isoxazol-5-yl)-3-methylbutanoyl)-N-((S)-1-(3-fluoro-4-(4-methylthiazol-5-yl)phenyl)ethyl)-4-hydroxypyrrolidine-2-carboxamide]
- DC50 [1]: > 30 nM
- Dmax [3]: > 75%

SMILES: Cc1nccn1-c1ccc([C@H](C)NC(=O)[C@@H]2C[C@@H](O)CN2C(=O)[C@H](c2cc(OCC#Cc3ncc(O[C@H]4C[C@H](Oc5cc(N6C7CCC6CN(c6cc(-c8ccccc8O)nnc6N)C7)ccn5)C4)cn3)no2)C(C)C)cc1 [compound 393, (2S,4R)-1-((2S)-2-(3-((3-(5-((1r,3S)-3-((4-(3-(3-amino-6-(2-hydroxyphenyl)pyridazin-4-yl)-3,8-diazabicyclo[3.2.1]octan-8-yl)pyridin-2-yl)oxy)cyclobutoxy)pyrimidin-2-yl)prop-2-yn-1-yl)oxy)isoxazol-5-yl)-3-methylbutanoyl)-4-hydroxy-N-((S)-1-(4-(2-methyl-1H-imidazol-1-yl)phenyl)ethyl)pyrrolidine-2-carboxamide]
- Dmax (SW1573, % degraded, when tested at the top concentration of between 0.3 and 10 μM, read-out: BRM Dmax (%)): > 75%
- DC50 (target protein degradation, read-out: BRM DC50): > 30 nM

SMILES: COc1nc(-c2scnc2C)c(F)cc1[C@H](C)NC(=O)[C@@H]1C[C@@H](O)CN1C(=O)[C@H](c1cc(OCCN2CCC(O[C@H]3C[C@H](Oc4cc(N5C6CCC5CN(c5cc(-c7ccccc7O)nnc5N)C6)ccn4)C3)CC2)no1)C(C)C [compound 561, (2S,4R)-1-((2S)-2-(3-(2-(4-((1r,3S)-3-((4-(3-(3-amino-6-(2-hydroxyphenyl)pyridazin-4-yl)-3,8-diazabicyclo[3.2.1]octan-8-yl)pyridin-2-yl)oxy)cyclobutoxy)piperidin-1-yl)ethoxy)isoxazol-5-yl)-3-methylbutanoyl)-N-((S)-1-(5-fluoro-2-methoxy-6-(4-methylthiazol-5-yl)pyridin-3-yl)ethyl)-4-hydroxypyrrolidine-2-carboxamide]
- DC50 [5]: > 30 nM

SMILES: Cc1ncsc1-c1ccc([C@H](C)NC(=O)[C@@H]2C[C@@H](O)CN2C(=O)[C@@H](c2cc(OCC[C@@H]3CCN(C[C@H]4C[C@H](Oc5cc(N6C7CCC6CN(c6cc(-c8ccccc8O)nnc6N)C7)ccn5)C4)[C@H](C)C3)no2)C(C)C)cc1 (racemic) [compound 580, (2S,4R)-1-((2R)-2-(3-(2-((2R,4R)-1-(((1r,3R)-3-((4-(3-(3-amino-6-(2-hydroxyphenyl)pyridazin-4-yl)-3,8-diazabicyclo[3.2.1]octan-8-yl)pyridin-2-yl)oxy)cyclobutyl)methyl)-2-methylpiperidin-4-yl)ethoxy)isoxazol-5-yl)-3-methylbutanoyl)-4-hydroxy-N-((S)-1-(4-(4-methylthiazol-5-yl)phenyl)ethyl)pyrrolidine-2-carboxamide]
- Dmax (BRM degradation, SW1573 cells, Table 2D, read-out: **Dmax (%) (% degraded)): > 75%
- DC50 [5]: < 2.5 nM
